According to US5489576A, “Therapeutic agent for hemorrhoidal diseases” (Senju Pharmaceutical Co., Ltd., priority 1993, dated 1996):
Counter-ions that a name gives are not always drawn.

Key:
rectal mucosa = test: Rectal mucosa irritating action; type: in vivo, Male Wistar rats; settings: intrarectal, 5 h; for Irritation potency, Index value: mean ± standard error (n = 6); for Irritation potency, Central value: score 0-4 of Table 1
Procedure: Rectal Mucosa Irritating Action of Compound (I)
The rectal mucosa irritating action of Compound (I) was examined as in the following.
1. Animals used: Male Wistar rats weighing 135-200 g
2. Test substance: EPC-K added to an oil-in-water type cream
The rats were fasted for 48 hours and the test substance was intrarectally administered. Five hours later, the rats were exsanguinated to death. The rectum was removed and the mucosa was visually observed. The condition of the mucosa was expressed in numerical units according to the evaluation standard shown in Table 1, and a central value and an average value were calculated, based on which the irritation by the test substance was classified according to the evaluation standard for irritation shown in Table 2.

[1] = tested on: recto-anal edema induced by a croton oil mixture; test: Suppressive effect on recto-anal edema induced by croton oil mixture; type: in vivo, Male Wistar rats; settings: 4% EPC-K in petrolatum, 24 h, * p < 0.05 vs control
Procedure: Effects of Compound (I) on Models with Hemorrhoidal Disease Induced by Croton Oil Mixture
The suppressive effect of Compound (I) on recto-anal edema induced by a croton oil mixture was examined.
1. Animals used: Male Wistar rats weighing 140-250 g
2. Test substance: EPC-K added to petrolatum base material to 4 w/w %
Composition: distilled water:pyridine:diethyl ether:6% croton oil in diethyl ether solution=1:4:5:10
Preparation: Water and a small amount of diethyl ether were added to pyridine and mixed. Then, a 6% croton oil diethyl ether solution was added and the remaining diethyl ether was added thereto. The mixture was vigorously shaken.
A stype of a swab was impregnated with the croton oil mixture (160 μl) and the entire stype was inserted into the rectum for 10 seconds.
5. Determination of edema
The test substance was administered intrarectally immediately after the induction of inflammation, and the anus was sealed for 4 hours with a clip so as to prevent leaking out of the substance.
At 24 hours after the induction of inflammation, the rats were exsanguinated to death and the weight of the recto-anal part, cut out in 15 mm length from 5 mm from the circular hairline on annal epithelium, was measured. The recto-anal coefficient (RAC=Wra·Wb^-1 ·10^3) was calculated on the basis of the weight of the recto-anal part (Wra) and body weight (Wb) and used as an index of inflammation.

rectal tissues = test: Wound healing accelerating effect on rectal tissues (hydroxyproline content); type: in vivo, Male Wistar rats; settings: 1% EPC-K, average (n=5)
Procedure: Wound Healing Accelerating Effect of Compound (I) on Rectal Tissues
The wound healing accelerating effect of Compound (I) on rectal tissues was examined using the amount of hydroxyproline (Hyp) in tissue as an index.
1. Animals used: Male Wistar rats weighing 150-250 g
2. Test substance: EPC-K added to an oil-in-water cream to 1 w/w %
The rats were fasted for 24 hours and a narrow saw was inserted in the rectum. A wound was made by two reciprocations of the saw in the rectum. The test substance was injected in the rectum once a day by 100 μl beginning immediately after forming of the wound. The rats were exsanguinated to death at 4 hours, 1, 3, 6 or 9 days thereafter and the rectum was removed. The removed rectum was delipidized, shredded and dried. After acid hydrolysis, pH was adjusted and hydroxyproline content was measured by the chloramine T oxidation method.

[2] = LD50 in rats (acute toxicity); settings: rat, in vivo
Source text: Accordingly, it can be advantageously used for the treatment of hemorrhoidal diseases.

[3] = 0.2% EPC-K in oil-in-water cream

**Q.** Which results are given for `Cc1c(C)c2c(c(C)c1OP(=O)(O)OC1=C(O)[C@@H]([C@@H](O)CO)OC1=O)CCC(C)(CCCC(C)CCCC(C)CCCC(C)C)O2` (mixture of isomers) [EPC-K, L-ascorbic acid DL-α-tocopheryl phosphate diester potassium salt]?
**A.** Irritation potency, Index value (rectal mucosa; [3]): 0.67 ± 0.42; Irritation potency, Central value (rectal mucosa; [3]): 0; Irritation potency, Index value (rectal mucosa; 1% EPC-K in oil-in-water cream): 0.50 ± 0.34; Irritation potency, Central value (rectal mucosa; 1% EPC-K in oil-in-water cream): 0; Irritation potency, Index value (rectal mucosa; 5% EPC-K in oil-in-water cream): 0.83 ± 0.54; Irritation potency, Central value (rectal mucosa; 5% EPC-K in oil-in-water cream): 0; Edema suppression [1]: 19.5%; Recto-anal coefficient (RAC) ([1]; mean ± standard error (n = 10), control 2.36, untreated 0.67): 2.03 ± 0.07; Hydroxyproline content in rectal tissues (rectal tissues; 4 hr later, control 19.67, normal rectum 22.26): 19.38 µg/mg; Hydroxyproline content in rectal tissues (rectal tissues; 1 day later, control 19.69, normal rectum 22.26): 21.70 µg/mg; Hydroxyproline content in rectal tissues (rectal tissues; 3 days later, control 23.46, normal rectum 22.26): 24.75 µg/mg; Hydroxyproline content in rectal tissues (rectal tissues; 6 days later, control 25.63, normal rectum 22.26): 25.22 µg/mg; Hydroxyproline content in rectal tissues (rectal tissues; 9 days later, control 27.38, normal rectum 22.26): 26.53 µg/mg; LD50 ([2]; intravenous injection to rats): ≥ 100 mg/kg; LD50 ([2]; oral administration to rats): ≥ 5000 mg/kg
